Data taken from patent US20230373985A1 (Origenis Gmbh, priority 2020, published 2023).

How the values were obtained:
[1] = biological target: T1, wt human TYK2, catalytic site (Homo sapiens, UniProt P29597); experiment: HTRF KinEASE assay, TYK2; type: biochemical; conditions: 1 μM ATP; read-out: IC50, Activity Toward TYK2
T1 construct: wt human TYK2, catalytic site; purchased SignalChem
T1 sequence (P29597 897-1176 limits assumed): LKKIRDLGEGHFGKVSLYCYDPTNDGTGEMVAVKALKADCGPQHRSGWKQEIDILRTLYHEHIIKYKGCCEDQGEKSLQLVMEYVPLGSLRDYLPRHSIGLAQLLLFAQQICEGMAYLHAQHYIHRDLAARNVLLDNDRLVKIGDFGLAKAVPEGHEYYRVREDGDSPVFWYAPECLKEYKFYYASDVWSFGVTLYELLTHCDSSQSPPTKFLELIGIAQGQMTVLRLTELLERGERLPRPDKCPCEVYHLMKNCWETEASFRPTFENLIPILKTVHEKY
Method in brief: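 HTRF KinEASE-TK readout with 1 μM biotinylated TK substrate in 1× kinase buffer, ≥30 min at room temperature, then antibody/streptavidin-XL665 detection for 60 min. TYK2 at 2 nM with 1 μM ATP; JAK2 at 1 nM with 100 μM ATP. Analysis uses emission ratios.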

[2] = biological target: T2, wt human LRRK2, catalytic site (Homo sapiens, UniProt Q5S007); experiment: TR-FRET LanthaScreen Eu Kinase Binding Assay, LRRK2 wt; conditions: one range stated for wt and G2019, read-out: IC50, Activity Toward LRRK2(Wt)
T2 construct: 5 nM wt human LRRK2, catalytic site; purchased ThermoFisher
T2 sequence (Q5S007 970-2527 limits assumed): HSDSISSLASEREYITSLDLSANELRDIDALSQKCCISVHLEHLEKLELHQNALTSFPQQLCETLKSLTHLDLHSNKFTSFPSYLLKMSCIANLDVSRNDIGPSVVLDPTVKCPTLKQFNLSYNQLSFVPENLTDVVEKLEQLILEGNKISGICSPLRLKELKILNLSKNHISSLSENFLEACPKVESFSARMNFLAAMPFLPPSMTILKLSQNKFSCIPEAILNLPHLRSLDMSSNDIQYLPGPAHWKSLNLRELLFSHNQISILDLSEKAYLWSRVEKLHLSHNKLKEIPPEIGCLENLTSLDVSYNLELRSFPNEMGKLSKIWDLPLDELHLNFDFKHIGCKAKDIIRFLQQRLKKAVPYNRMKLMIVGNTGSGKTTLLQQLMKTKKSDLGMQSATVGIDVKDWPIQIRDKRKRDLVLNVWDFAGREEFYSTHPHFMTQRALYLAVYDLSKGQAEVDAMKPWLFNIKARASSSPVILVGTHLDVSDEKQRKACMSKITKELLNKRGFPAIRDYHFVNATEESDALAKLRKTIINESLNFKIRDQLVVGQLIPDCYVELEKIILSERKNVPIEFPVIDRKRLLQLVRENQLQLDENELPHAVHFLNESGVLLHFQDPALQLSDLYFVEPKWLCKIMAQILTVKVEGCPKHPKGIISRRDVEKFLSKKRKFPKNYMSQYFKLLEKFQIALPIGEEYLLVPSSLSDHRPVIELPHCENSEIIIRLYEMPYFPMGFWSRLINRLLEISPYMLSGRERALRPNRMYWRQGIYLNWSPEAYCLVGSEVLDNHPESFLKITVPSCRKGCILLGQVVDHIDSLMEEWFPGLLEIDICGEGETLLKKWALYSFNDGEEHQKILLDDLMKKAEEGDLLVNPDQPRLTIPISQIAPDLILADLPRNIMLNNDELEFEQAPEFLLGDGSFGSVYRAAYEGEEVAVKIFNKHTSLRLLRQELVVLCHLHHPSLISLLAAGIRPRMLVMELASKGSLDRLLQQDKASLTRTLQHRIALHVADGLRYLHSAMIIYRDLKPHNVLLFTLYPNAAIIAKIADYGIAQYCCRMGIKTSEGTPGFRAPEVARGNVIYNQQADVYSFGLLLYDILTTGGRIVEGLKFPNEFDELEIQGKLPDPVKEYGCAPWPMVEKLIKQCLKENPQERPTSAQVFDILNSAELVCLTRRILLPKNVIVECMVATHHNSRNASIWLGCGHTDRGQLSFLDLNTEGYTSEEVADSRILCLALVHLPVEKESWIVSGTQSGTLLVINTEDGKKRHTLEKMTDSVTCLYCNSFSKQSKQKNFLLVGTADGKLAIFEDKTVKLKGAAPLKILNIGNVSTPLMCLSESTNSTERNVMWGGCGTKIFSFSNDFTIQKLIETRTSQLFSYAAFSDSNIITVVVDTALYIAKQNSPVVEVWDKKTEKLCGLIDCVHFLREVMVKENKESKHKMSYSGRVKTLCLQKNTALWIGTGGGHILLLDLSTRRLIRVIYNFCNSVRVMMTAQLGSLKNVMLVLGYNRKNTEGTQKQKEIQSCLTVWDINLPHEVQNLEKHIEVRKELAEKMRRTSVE
Method in brief: (§1)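 Competitive tracer-displacement TR-FRET, 1 h at room temperature, read as emission ratio. LRRK2 (wt or G2019S catalytic domain) at 5 nM with 2 nM Eu-anti-GST and 10 nM Tracer 236; full-length NUAK1 at 8 nM with 2 nM Eu-anti-His and 5 nM Tracer 236, all final in Kinase Buffer A.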

[3] = biological target: T3, G2019S human LRRK2, catalytic site (Homo sapiens, UniProt Q5S007, G2019S); experiment: TR-FRET LanthaScreen Eu Kinase Binding Assay, LRRK2 G2019S; conditions: LRRK2(G2019); one range stated for wt and G2019; read-out: IC50, Activity Toward LRRK2(G2019)
T3 construct: G2019S human LRRK2, catalytic site; purchased ThermoFisher
T3 sequence (Q5S007 970-2527 G2019S limits assumed): as the sequence (Q5S007 970-2527 limits assumed) above, with G1050S counted along it
Method in brief: as §1

[4] = biological target: T4, wt human JAK1, catalytic site (Homo sapiens, UniProt P23458); experiment: HTRF KinEASE assay, JAK1; type: biochemical; conditions: 2.5 μM ATP; read-out: IC50, Activity Toward JAK1
T4 construct: wt human JAK1, catalytic site; purchased ThermoFisher
T4 sequence (P23458 875-1153 limits assumed): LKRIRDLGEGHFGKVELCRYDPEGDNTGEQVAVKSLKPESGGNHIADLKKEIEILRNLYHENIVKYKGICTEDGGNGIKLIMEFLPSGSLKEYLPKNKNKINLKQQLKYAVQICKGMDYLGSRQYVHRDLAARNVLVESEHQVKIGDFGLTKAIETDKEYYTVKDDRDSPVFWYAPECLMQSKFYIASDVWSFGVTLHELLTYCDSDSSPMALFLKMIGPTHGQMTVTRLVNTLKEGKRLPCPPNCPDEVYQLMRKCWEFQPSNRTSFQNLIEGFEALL
Method in brief: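 Two-step HTRF KinEASE assay: compound, kinase/biotinylated TK substrate and ATP were incubated at least 30 min at room temperature. Antibody plus streptavidin-XL665 was then added and plates were read after 60 min. Inhibition was derived from emission ratios according to the kit protocol.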

[5] = biological target: T5, wt human JAK2, catalytic site (Homo sapiens, UniProt O60674); experiment: HTRF KinEASE assay, JAK2; type: biochemical; conditions: assay format not given (Z'-LYTE or HTRF KinEASE); read-out: IC50, Activity Toward JAK2
T5 construct: wt human JAK2, catalytic site; purchased SignalChem
T5 sequence (O60674 849-1124 limits assumed): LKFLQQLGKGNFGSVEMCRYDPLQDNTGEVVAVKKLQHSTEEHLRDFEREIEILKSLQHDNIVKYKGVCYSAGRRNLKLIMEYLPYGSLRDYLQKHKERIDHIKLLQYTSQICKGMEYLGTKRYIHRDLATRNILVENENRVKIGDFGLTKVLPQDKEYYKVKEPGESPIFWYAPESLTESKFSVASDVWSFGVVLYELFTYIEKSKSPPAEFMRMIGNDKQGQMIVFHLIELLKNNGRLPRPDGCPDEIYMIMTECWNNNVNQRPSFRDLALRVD
Protocol: Basic protocol for HTRF KinEASE assay (Cisbio/FRA) inhibitor studies involved two steps: • Enzymatic step: Addition of 4 μL of test compound in corresponding DMSO dilutions, 4 μL of kinase/substrate mixture, 2 μL of ATP into 384 well small volume plates. Incubation for at least 30 minutes at room temperature. • Detection step: Addition of 5 μL antibody and 5 μL streptavidin-XL665, read plate after 60 minutes. Data analysis of emission ratios according KinEASE assay protocol.
(§2) Kinase and assay components were adjusted to final concentrations according to kit protocol. For TYK2: 2 nM wt human TYK2, catalytic site (SignalChem/CAN), 1 μM HTRF KinEASE-TK Substrate-biotin, 1 μM ATP in 1× Kinase Buffer. For JAK1: 4 nM wt human JAK1, catalytic site (ThermoFisher/USA), 1 μM HTRF KinEASE-TK Substrate-biotin, 2.5 μM ATP in 1× Kinase Buffer. For JAK2: 1 nM wt human JAK2, catalytic site (SignalChem/CAN), 1 μM HTRF KinEASE-TK Substrate-biotin, 100 μM ATP in 1× Kinase Buffer.
as §2

[6] = biological target: T6, wt human NUAK1, full length (Homo sapiens, UniProt O60285); experiment: TR-FRET LanthaScreen Eu Kinase Binding Assay, NUAK1; conditions: read-out: IC50, Activity Toward NUAK1
T6 construct: 8 nM wt human NUAK1, full length (ThermoFisher/USA); purchased ThermoFisher
T6 sequence (O60285 1-661): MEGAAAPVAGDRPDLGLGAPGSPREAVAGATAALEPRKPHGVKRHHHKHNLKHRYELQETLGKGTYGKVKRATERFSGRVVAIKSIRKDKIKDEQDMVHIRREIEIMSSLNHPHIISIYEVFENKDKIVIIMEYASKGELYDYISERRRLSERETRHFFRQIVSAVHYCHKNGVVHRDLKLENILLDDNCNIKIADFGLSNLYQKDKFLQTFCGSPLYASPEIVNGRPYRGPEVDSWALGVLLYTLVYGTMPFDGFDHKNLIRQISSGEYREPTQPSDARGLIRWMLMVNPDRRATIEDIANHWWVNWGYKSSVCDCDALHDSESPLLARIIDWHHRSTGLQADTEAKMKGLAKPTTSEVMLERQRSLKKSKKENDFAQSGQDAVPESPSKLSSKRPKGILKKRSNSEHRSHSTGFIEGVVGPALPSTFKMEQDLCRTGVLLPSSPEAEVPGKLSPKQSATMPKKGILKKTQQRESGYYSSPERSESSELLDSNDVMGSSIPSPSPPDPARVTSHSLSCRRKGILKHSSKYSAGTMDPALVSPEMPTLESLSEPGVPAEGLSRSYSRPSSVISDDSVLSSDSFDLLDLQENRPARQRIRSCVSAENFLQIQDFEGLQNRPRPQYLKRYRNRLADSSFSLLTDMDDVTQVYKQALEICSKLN
Method in brief: as §1

SMILES | IC50 [1] [nM] | IC50 [2] [nM] | IC50 [3] [nM] | IC50 [4] [nM] | IC50 [5] [nM] | IC50 [6] [nM]
NC(=O)c1nn(-c2c(Cl)cccc2Cl)cc1Nc1ccc(C(=O)N2CCOCC2)cc1 [compound 17, 1-(2,6-dichlorophenyl)-4-((4-(morpholine-4-carbonyl)phenyl)amino)-1H-pyrazole-3-carboxamide] | < 10 | 100 to 1000 | 100 to 1000 | 10 to 100 | 100 to 1000 | –
CN1CCN(C(=O)c2ccc(Nc3cn(-c4c(Cl)cccc4Cl)nc3C(N)=O)cc2)CC1 [compound 32, 1-(2,6-dichlorophenyl)-4-((4-(4-methylpiperazine-1-carbonyl)phenyl)amino)-1H-pyrazole-3-carboxamide] | < 10 | 100 to 1000 | 100 to 1000 | 10 to 100 | 100 to 1000 | –
NC(=O)c1nn(-c2c(Cl)cccc2Cl)cc1Nc1ccc(-c2nnc3n2CCOC3)cc1 [compound 57, 1-(2,6-dichlorophenyl)-4-((4-(6,8-dihydro-5H-[1,2,4]triazolo[3,4-c][1,4]oxazin-3-yl)phenyl)amino)-1H-pyrazole-3-carboxamide] | < 10 | 100 to 1000 | 100 to 1000 | 100 to 1000 | 100 to 1000 | –
NC(=O)c1nn(-c2c(Cl)cccc2Cl)nc1Nc1ccc(C(=O)N2CCOCC2)cc1 [compound 101, 2-(2,6-Dichloro-phenyl)-5-[4-(morpholine-4-carbonyl)-phenylamino]-2H-[1,2,3]triazole-4-carboxylic acid amide] | < 10 | – | – | < 10 | 100 to 1000 | 100 to 1000
CN1CCN(C(=O)c2ccc(Nc3nn(-c4c(Cl)cccc4Cl)nc3C(N)=O)cc2)CC1 [compound 102, 2-(2,6-Dichloro-phenyl)-5-[4-(4-methyl-piperazine-1-carbonyl)-phenylamino]-2H-[1,2,3]triazole-4-carboxylic acid amide] | < 10 | – | – | < 10 | 100 to 1000 | 100 to 1000
NC(=O)c1nn(-c2c(Cl)cccc2Cl)nc1Nc1ccc(-c2nnn[nH]2)cc1 [compound 103, 2-(2,6-Dichloro-phenyl)-5-[4-(1H-tetrazol-5-yl)-phenylamino]-2H-[1,2,3]triazole-4-carboxylic acid amide] | 10 to 100 | – | – | 10 to 100 | 100 to 1000 | 100 to 1000
Cn1nnnc1-c1ccc(Nc2nn(-c3c(Cl)cccc3Cl)nc2C(N)=O)cc1 [compound 104] | < 10 | – | – | 10 to 100 | 100 to 1000 | 100 to 1000
NC(=O)c1nn(-c2c(Cl)cccc2Cl)nc1Nc1ccc(C(=O)N2CC(C(N)=O)C2)cc1 [compound 108] | < 10 | 100 to 1000 | 100 to 1000 | < 10 | 100 to 1000 | –
NC(=O)c1nn(-c2c(Cl)cccc2Cl)nc1Nc1ccc(-c2nncn2CC(F)F)cc1 [compound 113, 2-(2,6-dichlorophenyl)-5-((4-(4-(2,2-difluoroethyl)-4H-1,2,4-triazol-3-yl)phenyl)amino)-2H-1,2,3-triazole-4-carboxamide] | 10 to 100 | 100 to 1000 | 100 to 1000 | < 10 | 100 to 1000 | –
CC(C)n1cnnc1-c1ccc(Nc2nn(-c3c(Cl)cccc3Cl)nc2C(N)=O)cc1 [compound 116, 2-(2,6-dichlorophenyl)-5-((4-(4-isopropyl-4H-1,2,4-triazol-3-yl)phenyl)amino)-2H-1,2,3-triazole-4-carboxamide] | < 10 | 100 to 1000 | 100 to 1000 | – | 100 to 1000 | –
CN(C)C1CCN(C(=O)c2ccc(Nc3nn(-c4c(Cl)cccc4Cl)nc3C(N)=O)cc2)CC1 [compound 122, 2-(2,6-dichlorophenyl)-5-((4-(4-(dimethylamino)piperidine-1-carbonyl)phenyl)amino)-2H-1,2,3-triazole-4-carboxamide] | < 10 | 100 to 1000 | 100 to 1000 | 10 to 100 | 100 to 1000 | –

Next, values leading:

IC50 [1] [nM] | IC50 [2] [nM] | IC50 [3] [nM] | IC50 [4] [nM] | IC50 [5] [nM] | IC50 [6] [nM] | SMILES
< 10 | 100 to 1000 | 100 to 1000 | < 10 | 100 to 1000 | – | NC(=O)c1nn(-c2c(Cl)cccc2Cl)nc1Nc1ccc(C(=O)N2CC(F)C2)cc1 [compound 129, 2-(2,6-dichlorophenyl)-5-((4-(3-fluoroazetidine-1-carbonyl)phenyl)amino)-2H-1,2,3-triazole-4-carboxamide]
< 10 | 100 to 1000 | 100 to 1000 | 10 to 100 | 100 to 1000 | – | Cc1cnnn1-c1ccc(Nc2nn(-c3c(Cl)cccc3Cl)nc2C(N)=O)cc1 [compound 131, 2-(2,6-dichlorophenyl)-5-((4-(5-methyl-1H-1,2,3-triazol-1-yl)phenyl)amino)-2H-1,2,3-triazole-4-carboxamide]
10 to 100 | 100 to 1000 | 100 to 1000 | 10 to 100 | 100 to 1000 | – | CCc1cnncc1-c1ccc(Nc2cn(-c3c(Cl)cccc3Cl)nc2C(N)=O)cc1 [compound 322, 1-(2,6-dichlorophenyl)-4-((4-(5-ethylpyridazin-4-yl)phenyl)amino)-1H-pyrazole-3-carboxamide]
< 10 | 100 to 1000 | 100 to 1000 | 10 to 100 | 100 to 1000 | – | NC(=O)c1nn(-c2c(Cl)cccc2Cl)cc1Nc1ccc(-n2ncnc2C2COC2)cc1 [compound 347, 1-(2,6-dichlorophenyl)-4-((4-(5-(oxetan-3-yl)-1H-1,2,4-triazol-1-yl)phenyl)amino)-1H-pyrazole-3-carboxamide]
< 10 | 100 to 1000 | 100 to 1000 | 10 to 100 | 100 to 1000 | – | CCn1cnnc1-c1ccc(Nc2cn(-c3c(Cl)cc(F)cc3Cl)nc2C(N)=O)cc1 [compound 414, 1-(2,6-dichloro-4-fluorophenyl)-4-((4-(4-ethyl-4H-1,2,4-triazol-3-yl)phenyl)amino)-1H-pyrazole-3-carboxamide]
< 10 | 100 to 1000 | 100 to 1000 | 10 to 100 | 100 to 1000 | – | NC(=O)c1nn(-c2c(Cl)cccc2Cl)cc1Nc1ccc(C(=O)N2CC(F)C2)cc1 [compound 425, 1-(2,6-dichlorophenyl)-4-((4-(3-fluoroazetidine-1-carbonyl)phenyl)amino)-1H-pyrazole-3-carboxamide]
